# Experimental data taken from patent US4898855A, “Deuterated analogs of 1,25-dihydroxycholecalciferol” (Hoffman-La Roche Inc., priority 1987, dated 1990).
# Where two headings read alike, the source gives them in different places.
# Columns and labels:
# [1] = system: intestinal ^45 Ca transport (ICA); assay: Stimulation of intestinal calcium absorption in rat (everted gut sac); type: in vivo; details: 12.5 ng/rat intrajugularly, 18 hours after injection, vitamin D-deficient low calcium diet
# [2] = system: porcine growth-plate cartilage; assay: Stimulation of porcine cartilage growth in vitro (organ culture of fetal pig scapula growth-plates); type: cell-based; details: for Porcine cartilage in vitro, % increase, dry weight: 14-17 days incubation
# Description: Organ cultures of growth-plates from the scapula cartilages of fetal pigs were performed using methods previously described. (Burch WM, Lebovitz HE (1982) "Triiodothyronine stimulates maturation of porcine growth-plate cartilage in vitro." J. Clin. Investig. (70: 496.) Growth-plates (n=12/treatment group) were isolated aseptically, wet weight obtained, and then placed into individuals wells of 24 well-plastic culture plates. Growth-plates were incubated in 1.5 ml of MEM (Joklik-Modified) containing 0.5% BSA for 14-17 days. The medium was changed and fresh additives introduced every 4-5 days. This medium (MEM) was chosen because it contained antibiotics which allowed relatively long-term culture without contamination. BGJb. (Fitton-Jackson modification) medium with addition of antibiotics has also been used with similar results. At the end of the incubation, growth-plates were weighed for wet weight, then air dried for dry weight. The change in growth-plate wet weights were determined and the cartilages were photographed.
# [3] = system: Bone Ca resorption (BCR); assay: Bone calcium mobilization in rat (plasma Ca increase); type: in vivo; details: 12.5 ng/rat intrajugularly, 18 hours after injection, vitamin D-deficient low calcium diet
# Description: Male weanling rats (Holtzman, Madison WI.) were housed individually in overhanging wire cages and were fed a vitamin D-deficient diet containing low calcium (0.005%) and normal phosphorus (0.3%). Test compounds were dissolved in 10-20 μl of ethanol. Plasma (1.8 ml), collected from vitamin D, deficient rats was added to the ethanol solution. The test compounds were given intrajugularly in 0.3 ml of the ethanol-plasma carrier solution. Controls received carrier alone.
# Bone Ca resorption (BCR) was estimated by mesuring the blood Ca increase in the treated rats. Blood was collected in heparinized tubes and centrifuged. The resulting plasma was measured for calcium concentration by atomic absorption spectroscopy. Since rats were fed a diet essentially devoid of Ca, plasma Ca increases reflected mobilization of Ca from bone, not intestinal Ca absorption.
# [4] = system: vitamin D deficient rats; type: in vivo, rat; details: for Bone Mass: histomorphometric
# Description: Rats were placed on the following protocol. […]
# Ten 3 week old rats were maintained on vitamin D3 deficient diet for 6 weeks.
# The following parameters in Table III were evaluated, by means which are conventional in the art, after completion the above treatments. Bone mass is measured by known histomorphometric methods.
# [5] = system: embryonic chick pelvic cartilage; assay: Stimulation of avian cartilage growth in vitro (organ culture of embryonic chick pelvic cartilage); details: for Avian cartilage in vitro, % increase, dry weight: 3-day incubation
# [6] = high dose: daily 60 ng 1,25-(OH)2 D3 or 66 ng Hexa ^2 H, 3 weeks, vitamin D3 deficient diet
# [7] = low dose: daily 15 ng 1,25-(OH)2 D3 or 16.5 ng Hexa ^2 H, 3 weeks, vitamin D3 deficient diet
Compound,"% of 1,25-(OH)2 D3 effect in rat, intestinal calcium absorption [1]","Porcine cartilage in vitro, % increase, ^3 H ([2]; 10^-10 M)","Porcine cartilage in vitro, % increase, ^35 S ([2]; 10^-10 M)","Porcine cartilage in vitro, % increase, dry weight ([2]; 10^-10 M)","Porcine cartilage in vitro, % increase, ^3 H ([2]; 10^-11 M)","Porcine cartilage in vitro, % increase, ^35 S ([2]; 10^-11 M)","Porcine cartilage in vitro, % increase, dry weight ([2]; 10^-11 M)","% of 1,25-(OH)2 D3 effect in rat, bone calcium mobilization [3]","Body Weight [4, 6]","Serum Creatinine [4, 6]","Bone Mass [4, 6]","Body Weight [4, 7]","Serum Ca^2+ [4, 7]","Serum Creatinine [4, 7]","Bone Mass [4, 7]","Avian cartilage in vitro, % increase, ^35 S ([5]; 10^-9 M)","Avian cartilage in vitro, % increase, dry weight ([5]; 10^-9 M)","Avian cartilage in vitro, % increase, dry weight ([5]; 10^-10 M)","Avian cartilage in vitro, % increase, dry weight ([5]; 10^-11 M)","Avian cartilage in vitro, % increase, dry weight ([5]; 10^-12 M)",other results
"[2H]C([2H])([2H])C(O)(CCC[C@@H](C)[C@H]1CC[C@H]2/C(=C/C=C3/C[C@@H](O)C[C@H](O)C3=C)CCC[C@]12C)C([2H])([2H])[2H] [1,25-(OH)2 D3 -Hexa^2 H, 26,26,26,27,27,27-hexadeutero-1α,25-dihydroxycholecalciferol]",92%,215.7%,466.0%,57.6%,123.6%,203.2%,40.9%,64%,163 ± 7.2 gr,0.36 ± 0.04 mg/dL,371 ± 68 ^mm.spsp.3 /cm^3,193 ± 5 gr,11.28 ± 0.26 mg/dL,0.36 ± 0.02 mg/dL,288 ± 58 ^mm.spsp.3 /cm^3,41.0%,35.3%,29.1%,29.8%,31.2%,"Porcine cartilage in vitro, % increase, dry weight ([2]; 10^-12 M): 31.5%; Porcine cartilage in vitro, % increase, dry weight ([2]; 10^-13 M): 29.5%; Serum Ca^2+ [4, 6]: 11.20 ± 0.28 mg/dL; activity in increasing bone mass compared with 1,25-(OH)2 D3 ([4]; summary of Table III): more active than 1,25-(OH)2 D3; activity in inducing hypercalcemia compared with 1,25-(OH)2 D3 (serum Ca^2+) ([4]; summary of Table III): not as active as 1,25-(OH)2 D3; Avian cartilage in vitro, % increase, ^3 H proline ([5]; 10^-9 M): 148.3%; Avian cartilage in vitro, % increase, ^3 H proline ([5]; 10^-10 M): 145.4%; Avian cartilage in vitro, % increase, ^3 H thymidine ([5]; 10^-10 M): 44.3%; Avian cartilage in vitro, % increase, ^35 S ([5]; 10^-10 M): 30.1%; Avian cartilage in vitro, % increase, ^3 H proline ([5]; 10^-11 M): 131.4%; Avian cartilage in vitro, % increase, ^35 S ([5]; 10^-11 M): 26.3%; Avian cartilage in vitro, % increase, ^3 H proline ([5]; 10^-12 M): 65.0%; Avian cartilage in vitro, % increase, ^3 H thymidine ([5]; 10^-12 M): 62.5%; Avian cartilage in vitro, % increase, ^3 H proline ([5]; 10^-13 M): 36.0%; Avian cartilage in vitro, % increase, ^3 H thymidine ([5]; 10^-13 M): 57.9%; Avian cartilage in vitro, % increase, ^35 S ([5]; 10^-13 M): 21.5%; Avian cartilage in vitro, % increase, dry weight ([5]; 10^-13 M): 20.5%"
"[2H]C([2H])([2H])C(O)(C([2H])([2H])[2H])C([2H])([2H])CC[C@@H](C)[C@H]1CC[C@H]2/C(=C/C=C3/C[C@@H](O)C[C@H](O)C3=C)CCC[C@]12C [1,25-(OH)2 D3 -Octa^2 H, 24,24,26,26,26,27,27,27-octadeutero-1α,25-dihydroxycholecalciferol]",–,75%,410%,50%,20%,95%,42%,147%,–,–,–,–,–,–,–,10.8%,28.0%,21.6%,17.0%,10.3%,"Porcine cartilage in vitro, % increase, ^3 H ([2]; 10^-9 M): 150%; Porcine cartilage in vitro, % increase, ^35 S ([2]; 10^-9 M): 490%; Porcine cartilage in vitro, % increase, dry weight ([2]; 10^-9 M): 60%; Avian cartilage in vitro, % increase, ^3 H thymidine ([5]; 10^-10 M): 25.0%; Avian cartilage in vitro, % increase, ^3 H thymidine ([5]; 10^-11 M): 20.7%; Avian cartilage in vitro, % increase, ^3 H thymidine ([5]; 10^-12 M): 15.3%"
"C=C1/C(=C\C=C2/CCC[C@]3(C)[C@@H]([C@H](C)CCCC(C)(C)O)CC[C@@H]23)C[C@@H](O)C[C@@H]1O [1,25-(OH)2 D3, 1α,25-dihydroxycholecalciferol, reference compound]",100%,0%,0%,0%,0%,0%,0%,100%,156 ± 15 gr,0.35 ± 0.02 mg/dL,296 ± 56 ^mm.spsp.3 /cm^3,192 ± 4.5 gr,11.87 ± 0.16 mg/dL,0.37 ± 0.04 mg/dL,156 ± 16 ^mm.spsp.3 /cm^3,–,31.8%,27.2%,24.1%,22.6%,"Porcine cartilage in vitro, % increase, ^3 H ([2]; 10^-9 M): 300%; Porcine cartilage in vitro, % increase, ^35 S ([2]; 10^-9 M): 280%; Porcine cartilage in vitro, % increase, dry weight ([2]; 10^-9 M): 49%; Serum Ca^2+ ([4]; rat, in vivo): 11.92 ± 0.40 mg/dL; Avian cartilage in vitro, % increase, ^3 H proline ([5]; 10^-10 M): 122%; Avian cartilage in vitro, % increase, ^35 S ([5]; 10^-10 M): 21.8%; Avian cartilage in vitro, % increase, ^3 H proline ([5]; 10^-11 M): 68.3%; Avian cartilage in vitro, % increase, ^35 S ([5]; 10^-11 M): 13.8%; Avian cartilage in vitro, % increase, ^3 H proline ([5]; 10^-12 M): 46.3%; Avian cartilage in vitro, % increase, ^35 S ([5]; 10^-12 M): 8.6%"
